Results taken from patent US5670154A, “Reducing tyrosinase activity” (priority 1994, dated 1997).

System: tyrosinase
Experiment: Tyrosinase inhibition, absorbance of Dopa-Chroma at 475 nm
Assay type: biochemical, mushroom
Conditions: for Inhibition (%): Inhibitory agent 0.15mg/ml, tyrosine substrate, 30 minutes at 37° C.; for Relative strength of tyrosinase inhibition among the catechins: comparison of the catechins of Table 1
Experimental: The level of tyrosinase, inhibition was measured according to the following method.
50 μl of the enzyme (8300 U/ml) (Source:mushroom, SIGMA) was added to a mixture of 250 μl of tyrosine substrate solution (0.3 mg/ml), 250 μl of the inhibiting (polyphenol) solution (0.5 mg/ml), 250 μl of Macllvain buffer solution and left for 30 minutes at 37° C. After this time the absorbance of the red colored Dopa-Chroma formed was measured at 475 nm.
Inhibition(%)=[(A-B)-(C-D)]/(A-B)×100
Where A, B, C, D represent the absorbance of solutions A, B, C and D as defined below, measured at 475 nm respectively.
A is the tyrosine+enzyme solution
B is the tyrosine solution
C is the tyrosine+enzyme+polyphenol solution
D is the tyrosine+polyphenol solution

Compound	Inhibition (%)	Relative strength of tyrosinase inhibition among the catechins
O=C(O[C@@H]1Cc2c(O)cc(O)cc2O[C@@H]1c1ccc(O)c(O)c1)c1cc(O)c(O)c(O)c1 [Epicatechin gallate, (-)Epicatechin gallate]	95.1	strongest inhibitors of tyrosinase
Oc1cc(O)c2c(c1)O[C@H](c1ccc(O)c(O)c1)[C@H](O)C2 [Epicatechin, (-)Epicatechin]	11.9	–
O=C(O[C@@H]1Cc2c(O)cc(O)cc2O[C@@H]1c1cc(O)c(O)c(O)c1)c1cc(O)c(O)c(O)c1 [Epigallocatechin gallate, (-)Epigallocatechin gallate]	79.5	strongest inhibitors of tyrosinase
Oc1cc(O)c2c(c1)O[C@H](c1cc(O)c(O)c(O)c1)[C@H](O)C2 [Epigallocatechin, (-)Epigallocatechin]	17.5	–
